Values of other authors in article PMC6482886 (Chemical Science, 2019).

Experiments:
hDMX = biological target: T1, hDMX (Homo sapiens, UniProt O15151)
T1 sequence (O15151 1-392): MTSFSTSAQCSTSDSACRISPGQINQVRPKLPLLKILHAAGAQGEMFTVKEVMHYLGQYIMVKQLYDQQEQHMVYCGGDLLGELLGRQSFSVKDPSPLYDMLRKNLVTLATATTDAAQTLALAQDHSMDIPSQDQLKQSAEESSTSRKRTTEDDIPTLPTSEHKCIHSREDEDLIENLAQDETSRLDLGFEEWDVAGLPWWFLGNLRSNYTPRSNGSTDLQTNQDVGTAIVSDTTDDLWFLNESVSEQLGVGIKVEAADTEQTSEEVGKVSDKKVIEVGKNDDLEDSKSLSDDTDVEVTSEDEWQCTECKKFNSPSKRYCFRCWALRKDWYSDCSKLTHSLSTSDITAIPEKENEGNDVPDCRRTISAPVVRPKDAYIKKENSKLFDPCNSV

Compound: N#Cc1c2ccc(N)cc2nc2cc(N)ccc12 [CTX1]
- cellular IC50 / cellular activity reported in the literature: tens to hundreds of micromolar range

Compound: CCOc1cc(/C=C2/C(=O)N(c3ccccc3)N=C2C)cc(Cl)c1OCC(=O)OC [SJ-172550]
- binding affinity to hDMX compared with p53 (hDMX): less affinity to hDMX than p53
